What was measured:
[1] = tested on: bacteria on the udder and teat areas; assay: sanitizing the udder and teat areas with a solution of TCM; format: in vivo
Source text: This invention relates to the use of trichloromelamine as an active agent for sanitizing the udder and teat areas of cows. Like bleach TCM produces the Cl+ ion which is capable of killing a wide spectrum of bacteria. […] Solutions of sodium hypochlorite are generally not suitable for use on living tissue. […] The process of this invention is effected by spraying the udder and teat areas of a bovine with a solution of TCM. The process may be further effected by dipping the udder and teat areas in a solution of TCM. The process of this invention effectively kills all bacteria as may be on the udder and teat areas of a bovine in less than one minute.

[2] = bovine, in vivo
Source text: This invention relates to the use of trichloromelamine as an active agent for sanitizing the udder and teat areas of cows. Like bleach TCM produces the Cl+ ion which is capable of killing a wide spectrum of bacteria. […] Solutions of sodium hypochlorite are generally not suitable for use on living tissue.

Substance: trichloromelamine [TCM]
- residual effect on the udder and teat areas ([1]; residual TCM left after treatment): inhibits future bacterial contamination
- time to kill the troublesome bacteria ([1]; soft living tissue treated in accordance with the invention): killed in a matter of seconds
- effect on treated living tissue [2]: not adversely affected

From patent publication US7344727B2, “Process for cleaning bovine teats” (H&S Chemical Company, Inc., priority 2002, dated 2008)
